Data as given in US8937048B2, “Anti-angiogenic compounds” (Covx Technologies Ireland, Limited, priority 2008, dated 2015).
Where a SMILES comes first, the peptide text is derived from it. Bridges are numbered along the chain shown (N, C = ends). [ ]: non-standard residue; d: D form. The star is where a group is joined. X1 = O=C(COCC(=O)*)Nc1ccc(CCC(=O)N2CCC2=O)cc1; Nva = CCC[C@H](N)C(=O)O

Tests used:
[1] = target: T1, recombinant human VEGF165 (Homo sapiens, UniProt P15692); test: VEGF peptide binding assay (competition ELISA, VEGF165 binding to coated VEGFR2/Fc)
T1 sequence (P15692 27-191 isoform P15692-4): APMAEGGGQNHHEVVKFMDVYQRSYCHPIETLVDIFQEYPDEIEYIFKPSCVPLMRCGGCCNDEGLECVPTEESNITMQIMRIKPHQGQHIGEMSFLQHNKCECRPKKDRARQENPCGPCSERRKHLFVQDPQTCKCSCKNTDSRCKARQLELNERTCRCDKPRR
How it was run: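 VEGFR2/Fc was coated, and peptides (0.128–10,000 nM, N-acetyl, C-amide) were preincubated with 25 ng/ml human VEGF165 and added for 1 h at RT. Bound VEGF was detected with biotinylated anti-VEGF, streptavidin-HRP and TMB at OD450. IC50 came from sigmoid dose-response fits of OD450 versus concentration.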

[2] = Mouse half-life (T 1/2) and screening half-life of Ang2 binding compounds; format: in vivo, Swiss Webster mice; conditions: mouse, in vivo; Table 5, screening half life (in parentheses), shorter test period; read-out: T ½ (Sc) hours, screening half life
Experimental: For “screening” T ½, test compounds were intravenously administered into male Swiss Webster mice. Blood samples were taken from 4 mice per time point via retroorbital sinus bleed at the following time points: 0.08, 5, and 32 hours. Blood level of test compounds were determined by ELISA. The data were reported as the percentage of test compounds at 32 hours versus 5 min. Normal T ½ was calculated in a similar fashion, after undergoing additional data analysis using WinNonlin version 4.1 (Pharsight Corporation). The data was fit to a model based upon the shape of the curve (i.e. a bi-exponential decline will be fit to a two compartment model, etc.) The criteria for best fit (i.e. lowest % CV) was based on iterative re-weighted least squares.

| SMILES | IC50 [1] [nM] | half-life [2] [h] |
| --- | --- | --- |
| CC[C@H](C)[C@@H]1NC(=O)[C@H](CC(=O)O)NC(=O)[C@@H](NC(=O)[C@H](CC(N)=O)NC(=O)[C@@H]2CCCN2C(=O)[C@H](CCC(=O)O)NC(=O)[C@@H](NC(C)=O)C(C)C)CSSC[C@@H](C(=O)N[C@@H](Cc2ccccc2)C(=O)N[C@@H](CCC(=O)O)C(=O)N[C@@H](CCCNC(=N)N)C(=O)N[C@@H](CC(C)C)C(=O)N[C@@H](Cc2ccc(O)cc2)C(=O)NCC(=O)N[C@@H](CCC(=O)O)C(=O)N[C@@H](Cc2ccccc2)C(N)=O)NC(=O)[C@H](CCC(=O)O)NC(=O)[C@H](Cc2c[nH]c3ccccc23)NC(=O)[C@H](C(C)C)NC(=O)[C@H](Cc2c[nH]c3ccccc23)NC(=O)[C@H](CCSC)NC(=O)[C@H](C(C)C)NC(=O)[C@H](Cc2c[nH]cn2)NC1=O [Compound 70, VEPNCDIHVMWVWECFERLYGEF] (Ac-VEPNCDIHVMWVWECFERLYGEF-NH2; disulfide 5-15 (inferred)) | 9.3 | – |
| CC[C@H](C)[C@@H]1NC(=O)[C@H](CC(=O)O)NC(=O)[C@@H](NC(=O)[C@H](CC(N)=O)NC(=O)[C@@H]2CCCN2C(=O)[C@H](CCC(=O)O)NC(=O)[C@@H](NC(C)=O)C(C)C)CSSC[C@@H](C(=O)N[C@@H](Cc2ccccc2)C(=O)N[C@@H](CCC(=O)O)C(=O)N[C@@H](CCCNC(=N)N)C(=O)N[C@@H](CC(C)C)C(=O)N[C@@H](Cc2ccc(O)cc2)C(=O)NCC(=O)N[C@@H](CC(C)C)C(=O)N[C@@H](CO)C(N)=O)NC(=O)[C@H](CCC(=O)O)NC(=O)[C@H](Cc2c[nH]c3ccccc23)NC(=O)[C@H](C(C)C)NC(=O)[C@H](Cc2c[nH]c3ccccc23)NC(=O)[C@H](CCSC)NC(=O)[C@H](C(C)C)NC(=O)[C@H](Cc2c[nH]cn2)NC1=O [Compound 71, VEPNCDIHVMWVWECFERLYGLS] (Ac-VEPNCDIHVMWVWECFERLYGLS-NH2; disulfide 5-15 (inferred)) | 5.4 | – |
| CC[C@H](C)[C@@H]1NC(=O)[C@H](CC(=O)O)NC(=O)[C@@H](NC(=O)[C@H](CC(N)=O)NC(=O)[C@@H]2CCCN2C(=O)[C@H](CCC(=O)O)NC(=O)[C@@H](NC(C)=O)C(C)C)CSSC[C@@H](C(=O)N[C@@H](Cc2ccccc2)C(=O)N[C@@H](CCC(=O)O)C(=O)N[C@@H](CCCNC(=N)N)C(=O)N[C@@H](CC(C)C)C(=O)N[C@@H](Cc2ccc(O)cc2)C(=O)NCC(=O)N[C@@H](CC(C)C)C(N)=O)NC(=O)[C@H](CCC(=O)O)NC(=O)[C@H](Cc2c[nH]c3ccccc23)NC(=O)[C@H](C(C)C)NC(=O)[C@H](Cc2c[nH]c3ccccc23)NC(=O)[C@H](CCSC)NC(=O)[C@H](C(C)C)NC(=O)[C@H](Cc2c[nH]cn2)NC1=O [Compound 72, VEPNCDIHVMWVWECFERLYGL] (Ac-VEPNCDIHVMWVWECFERLYGL-NH2; disulfide 5-15 (inferred)) | 4.8 | – |
| CC[C@H](C)[C@@H]1NC(=O)[C@H](CC(=O)O)NC(=O)[C@@H](NC(=O)[C@H](CC(N)=O)NC(=O)[C@@H]2CCCN2C(=O)[C@H](CCC(=O)O)NC(=O)[C@@H](NC(C)=O)C(C)C)CSSC[C@@H](C(=O)N[C@@H](Cc2ccccc2)C(=O)N[C@@H](CCC(=O)O)C(=O)N[C@@H](CCCNC(=N)N)C(=O)N[C@@H](CC(C)C)C(=O)N[C@@H](Cc2ccc(O)cc2)C(=O)NCC(=O)N[C@H](C(=O)N[C@@H](CCC(N)=O)C(N)=O)C(C)C)NC(=O)[C@H](CCC(=O)O)NC(=O)[C@H](Cc2c[nH]c3ccccc23)NC(=O)[C@H](C(C)C)NC(=O)[C@H](Cc2c[nH]c3ccccc23)NC(=O)[C@H](CCSC)NC(=O)[C@H](C(C)C)NC(=O)[C@H](Cc2c[nH]cn2)NC1=O [Compound 74, VEPNCDIHVMWVWECFERLYGVQ] (Ac-VEPNCDIHVMWVWECFERLYGVQ-NH2; disulfide 5-15 (inferred)) | 4 | – |
| CC[C@H](C)[C@@H]1NC(=O)[C@H](CC(=O)O)NC(=O)[C@@H](NC(=O)[C@H](CC(N)=O)NC(=O)[C@@H]2CCCN2C(=O)[C@H](CCC(=O)O)NC(=O)[C@@H](NC(C)=O)C(C)C)CSSC[C@@H](C(=O)N[C@@H](Cc2ccccc2)C(=O)N[C@@H](CCC(=O)O)C(=O)N[C@@H](CCCNC(=N)N)C(=O)N[C@@H](CC(C)C)C(=O)N[C@@H](Cc2ccc(O)cc2)C(=O)NCC(=O)N[C@@H](CC(C)C)C(=O)N[C@@H](CCC(=O)O)C(N)=O)NC(=O)[C@H](CCC(=O)O)NC(=O)[C@H](Cc2c[nH]c3ccccc23)NC(=O)[C@H](C(C)C)NC(=O)[C@H](Cc2c[nH]c3ccccc23)NC(=O)[C@H](CCSC)NC(=O)[C@H](C(C)C)NC(=O)[C@H](Cc2c[nH]cn2)NC1=O [Compound 75, VEPNCDIHVMWVWECFERLYGLE] (Ac-VEPNCDIHVMWVWECFERLYGLE-NH2; disulfide 5-15 (inferred)) | 3 | – |
| CC[C@H](C)[C@@H]1NC(=O)[C@H](CC(=O)O)NC(=O)[C@@H](NC(=O)[C@H](CC(N)=O)NC(=O)[C@@H]2CCCN2C(=O)[C@H](CCC(=O)O)NC(=O)[C@@H](NC(C)=O)C(C)C)CSSC[C@@H](C(=O)N[C@@H](Cc2ccccc2)C(=O)N[C@@H](CCC(=O)O)C(=O)N[C@@H](CCCNC(=N)N)C(=O)N[C@@H](CC(C)C)C(=O)N[C@@H](Cc2ccc(O)cc2)C(=O)NCC(=O)N2CCC[C@H]2C(=O)N[C@@H](CC(C)C)C(N)=O)NC(=O)[C@H](CCC(=O)O)NC(=O)[C@H](Cc2c[nH]c3ccccc23)NC(=O)[C@H](C(C)C)NC(=O)[C@H](Cc2c[nH]c3ccccc23)NC(=O)[C@H](CCSC)NC(=O)[C@H](C(C)C)NC(=O)[C@H](Cc2c[nH]cn2)NC1=O [Compound 76, VEPNCDIHVMWVWECFERLYGPL] (Ac-VEPNCDIHVMWVWECFERLYGPL-NH2; disulfide 5-15 (inferred)) | 2.3 | – |
| CC[C@H](C)[C@@H]1NC(=O)[C@H](CC(=O)O)NC(=O)[C@@H](NC(=O)[C@H](CC(N)=O)NC(=O)[C@@H]2CCCN2C(=O)[C@H](CCC(=O)O)NC(=O)[C@@H](NC(C)=O)C(C)C)CSSC[C@@H](C(=O)N[C@@H](Cc2ccccc2)C(=O)N[C@@H](CCC(=O)O)C(=O)N[C@@H](CCCNC(=N)N)C(=O)N[C@@H](CC(C)C)C(=O)N[C@@H](Cc2ccc(O)cc2)C(=O)NCC(=O)N2CCC[C@H]2C(=O)N[C@@H](Cc2ccccc2)C(N)=O)NC(=O)[C@H](CCC(=O)O)NC(=O)[C@H](Cc2c[nH]c3ccccc23)NC(=O)[C@H](C(C)C)NC(=O)[C@H](Cc2c[nH]c3ccccc23)NC(=O)[C@H](CCSC)NC(=O)[C@H](C(C)C)NC(=O)[C@H](Cc2c[nH]cn2)NC1=O [Compound 77, VEPNCDIHVMWVWECFERLYGPF] (Ac-VEPNCDIHVMWVWECFERLYGPF-NH2; disulfide 5-15 (inferred)) | 1.8 | – |
| CCC[C@H](NC(=O)[C@@H](NC(=O)[C@H](CCCCNC(=O)COCC(=O)Nc1ccc(CCC(=O)N2CCC2=O)cc1)NC(=O)[C@H](CC(=O)O)NC(=O)[C@H](CC(C)C)NC(=O)[C@H](CCC(=O)O)NC(=O)[C@H](CC(=O)O)NC(=O)[C@H](CC(C)C)NC(=O)[C@@H]1CCCN1C(=O)[C@H](CCC(N)=O)NC(=O)[C@H](Cc1ccc(O)cc1)NC(=O)[C@H](CCCCNC(C)=O)NC(=O)[C@H](CCC(N)=O)NC(C)=O)[C@@H](C)O)C(=O)N[C@@H](Cc1ccc(O)cc1)C(=O)N[C@@H](CC(=O)O)C(=O)N[C@@H](CCC(N)=O)C(=O)N[C@@H](Cc1ccccc1)C(=O)N[C@@H](CCSC)C(=O)N[C@@H](CC(C)C)C(=O)N[C@@H](CCC(N)=O)C(=O)N[C@@H](CCC(N)=O)C(=O)NCC(N)=O [Compound 4041] (Ac-QK(Ac)YQPLDELDK(X1)T[Nva]YDQFMLQQG-NH2) | – | 36 |
| CSCC[C@H](NC(=O)[C@H](Cc1ccccc1)NC(=O)[C@H](CCC(N)=O)NC(=O)[C@H](CC(=O)O)NC(=O)[C@H](Cc1ccc(O)cc1)NC(=O)[C@H](CCC(C)C)NC(=O)[C@@H](NC(=O)[C@H](CCCCNC(=O)COCC(=O)Nc1ccc(CCC(=O)N2CCC2=O)cc1)NC(=O)[C@H](CC(=O)O)NC(=O)[C@H](CC(C)C)NC(=O)[C@H](CCC(=O)O)NC(=O)[C@H](CC(=O)O)NC(=O)[C@H](CC(C)C)NC(=O)[C@@H]1CCCN1C(=O)[C@H](CCC(N)=O)NC(=O)[C@H](Cc1ccc(O)cc1)NC(=O)[C@H](CCCCNC(C)=O)NC(=O)[C@H](CCC(N)=O)NC(C)=O)[C@@H](C)O)C(=O)N[C@@H](CC(C)C)C(=O)N[C@@H](CCC(N)=O)C(=O)N[C@@H](CCC(N)=O)C(=O)NCC(N)=O [Compound 4042] | – | 42 |
| CSCC[C@H](NC(=O)[C@H](Cc1ccccc1)NC(=O)[C@H](CCC(N)=O)NC(=O)[C@H](CC(=O)O)NC(=O)[C@H](Cc1ccc(O)cc1)NC(=O)[C@H](CC(C)C)NC(=O)[C@@H](NC(=O)[C@H](CCCCNC(=O)COCC(=O)Nc1ccc(CCC(=O)N2CCC2=O)cc1)NC(=O)[C@H](CC(=O)O)NC(=O)[C@H](CC(C)C)NC(=O)[C@H](CCC(=O)O)NC(=O)[C@H](CC(=O)O)NC(=O)[C@H](CC(C)C)NC(=O)[C@@H]1CCCN1C(=O)[C@H](CCC(N)=O)NC(=O)[C@H](Cc1ccc(O)cc1)NC(=O)[C@H](CCCCNC(C)=O)NC(=O)[C@H](CCC(N)=O)NC(=O)CCOCCOCCNC(C)=O)[C@@H](C)O)C(=O)N[C@@H](CC(C)C)C(=O)N[C@@H](CCC(N)=O)C(=O)N[C@@H](CCC(N)=O)C(=O)NCC(N)=O [Compound 4052, (Amido 2-PEG)QKacY QPL DEL DK(0P)T LYD QFMLQQ G] | – | 31 |
